The target in this assay is T1, human serum albumin (HSA) (Homo sapiens, UniProt P02768).
T1 construct: gene ALB; commercial human serum albumin purchased from Merck
Briefly: fluorescence polarization titration, nonlinear […] fit. Format: binding.

The structures appear in SMILES notation. Where two headings read alike, the source gives them in different places.

T1 sequence (P02768 25-609): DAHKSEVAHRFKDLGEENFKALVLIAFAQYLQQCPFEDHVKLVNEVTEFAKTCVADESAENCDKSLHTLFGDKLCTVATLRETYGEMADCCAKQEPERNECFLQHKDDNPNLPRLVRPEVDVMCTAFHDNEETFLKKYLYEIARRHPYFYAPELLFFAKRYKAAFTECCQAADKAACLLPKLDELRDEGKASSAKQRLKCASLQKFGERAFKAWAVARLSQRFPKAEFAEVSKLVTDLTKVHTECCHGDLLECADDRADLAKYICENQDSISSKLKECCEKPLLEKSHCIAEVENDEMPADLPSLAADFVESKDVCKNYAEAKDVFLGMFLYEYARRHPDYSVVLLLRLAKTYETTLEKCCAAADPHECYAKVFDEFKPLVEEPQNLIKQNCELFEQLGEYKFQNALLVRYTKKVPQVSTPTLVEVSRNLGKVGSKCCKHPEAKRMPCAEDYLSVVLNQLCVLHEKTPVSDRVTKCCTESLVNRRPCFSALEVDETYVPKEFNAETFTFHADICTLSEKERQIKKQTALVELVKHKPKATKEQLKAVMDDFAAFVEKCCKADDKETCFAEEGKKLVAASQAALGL

Regarding `CC1(C)C(CO)=C(c2ccc3ccc4cccc5ccc2c3c45)C(C)(C)N1[O]` [compound 1, 3-hydroxymethyl-1-oxyl-4-(pyren-1-yl)-2,2,5,5-tetramethyl-2,5-dihydro-1H-pyrrole radical], the Kd is 1410 nM.
On to `CON1C(C)(C)C(CO)=C(c2ccc3ccc4cccc5ccc2c3c45)C1(C)C` [compound 6, (1-methoxy-2,2,5,5-tetramethyl-4-(pyren-1-yl)-2,5-dihydro-1H-pyrrol-3-yl)methanol], for which the Kd (read-out: logK (1-HSA, Absence of 2) (converted)) is 331 nM.

(Values after article PMC10096054, “A New Application of Spin and Fluorescence Double-Sensor Molecules” (Molecules, 2023).)
